# Reference: patent publication US4609667A, “Inhibitor of mammalian collagenase and elastase” (American Home Products Corporation, priority 1985, dated 1986)
# Experiments:
# Format in all cases: biochemical
# [1] = target: Collagenase produced by normal human leukocytes or by normal human skin fibroblasts; test: in vitro collagenase inhibition assay (14C-acetylated collagen hydrolysis); conditions: pH 7.4, 35° C., one to five hours
# Description: The compound N-[[(5-chloro-2-benzothiazolyl)thio]-phenylacetyl]-L-cysteine is tested for collagenase inhibition in an in vitro assay based on the procedure described by A. Sellers and J.J. Reynolds, Biochem. J., 167 (1977) pp. 353-60.
# Collagenase produced by normal human leukocytes or by normal human skin fibroblasts in cell cultures is purified by adsorption onto a collagen Sepharose 4B column. Prior to use in the assay, the zymogen is activated with trypsin, while the trypsin in turn, is inactivated with an excess of soybean trypsin inhibitor.
# According to the assay procedure, microfuge tubes are prepared containing a total of about 150 μl. of solution containing: 25 μl. collagen (^14 C-acetylated collagen--2 mg./ml in 0.01% acetic acid); 25 μl. of 0.15 M tris/0.015 M CaCl2, pH 7.4; 75 μl. collagenase in tris buffer (0.05 M tris/0.005 M CaCl2, pH 7.4); and 25 μl. of collagenase inhibitor in tris buffer. Samples and controls are incubated at 35° C. for one to five hours depending upon potency of the enzyme. At the end of the reaction period, the tubes are spun down in a Beckman Microfuge. A 25 μl. aliquot of each tube is then assayed in a scintillation counter. Since native collagen forms insoluble fibrils under these conditions, radioactivity detected in the supernate is a measure of collagen hydrolysis. […]
# human leukocyte elastase [2] = target: T1, human leukocyte elastase (Homo sapiens, UniProt P08246); test: human elastase inhibition in vitro assay, Method 1 (succinyl-L-alanyl-L-alanyl-L-alanyl-p-nitroanilide substrate)
# T1 construct: A crude elastase preparation is made by homogenizing human leukocyte granules; from tissue; host or cells: human leukocyte granules (homogenized, supernatant dialyzed; crude preparation)
# T1 sequence (P08246 30-247 limits assumed): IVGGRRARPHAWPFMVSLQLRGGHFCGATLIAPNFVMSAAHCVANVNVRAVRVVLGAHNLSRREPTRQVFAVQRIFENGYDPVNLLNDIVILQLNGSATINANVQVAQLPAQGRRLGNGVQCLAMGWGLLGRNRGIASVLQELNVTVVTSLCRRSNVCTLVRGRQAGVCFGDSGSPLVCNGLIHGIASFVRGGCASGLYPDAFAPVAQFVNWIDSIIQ
# Description: (§1) The compound N-[[5-chloro-2-benzothiazolyl)thio]-phenylacetyl]-L-cysteine is tested for human elastase inhibition in an in vitro assay which is carried out as follows:
# (§2) A crude elastase preparation is made by homogenizing human leukocyte granules [prepared according to the method of R. J. Baryk and J. Travis, Biochemistry, 15, (4), 837 (1976)], spinning and dialyzing the supernates against cold 0.05 M trisHCl/0.05 M Na Cl at a pH 8.0.
# (§3) This elastase preparation is used in two assay methods to test for elastase inhibition.
# 400 μl of the elastase preparation, 10 μl (0.0625 mg) of succinyl-L-alanyl-L-alanyl-L-alanyl-p-nitroanilide (the enzyme substrate), 207 μl of buffer and varying amounts of the elastase inhibitor under testing are incubated at 37° C. for 19 hours. The hydrolysis is measured by use of high pressure liquid chromatography (HPLC) or by the spectrophotometric measurement of the release of p-nitroaniline at a wavelength of 410 nm.
# human leukocyte elastase [3] = target: T1, human leukocyte elastase; test: human elastase inhibition in vitro assay, Method 2 (elastin-Congo red complex); conditions: 20 μg of compound; 37° C., 18 hours; Standard (complete hydrolysis by hog pancreatic elastase) 1.0; No Inhibitor 0.104
# Description: as §1, §2, §3
# In this method, the substrate used is an elastin-Congo red complex. Hydrolysis of this substrate by elastase releases Congo red, which is assayed by HPLC. The assay system also contains buffer and either 20 μg of the compound of Example 1, or no compound. The system is incubated at 37° C. for 18 hours. The standard sample represents the complete hydrolysis of the elastin-Congo red complex by hog pancreatic elastase.
structure (smiles),measurement,setting,value
"O=C(N[C@@H](CS)C(=O)O)C(Sc1nc2cc(Cl)ccc2s1)c1ccccc1 (stereo partly drawn) [Example 1, N-[[(5-chloro-2-benzothiazolyl)thio]phenylacetyl]-L-cysteine]",IC50,[1]; Experiment 1: Collagen I as substrate,5.7 µM
same,IC50,[1]; Experiment 2: Collagen II as substrate,12.5 µM
same,IC50,"human leukocyte elastase [2]; 37° C., 19 hours, HPLC or 410 nm",4.78 µM
same,inhibitory effect on the enzymatic activity of human leukocyte elastase (in words),human leukocyte elastase [2]; conclusion from Methods 1 and 2,strong inhibitory effect
same,Relative Release of Congo Red,human leukocyte elastase [3],0.000
